Measurements as given in the kinase profiling compilation of Christmann-Franck et al. (2016).

Tests used:
Test in all cases: radiometric filter-binding kinase assay, Kinase HotSpot
Settings in all cases: compound 0.5 µM; ATP 10 µM
CDK1 CCNA2 (human) = CDK1 CCNA2 (human) (UniProt P06493+P20248)
CDK1 CCNB1 (human) = CDK1 CCNB1 (human) (UniProt P06493+P14635)
CDK2 CCNA2 (human) = CDK2 CCNA2 (human) (UniProt P24941+P20248)
CDK2 CCNE1 (human) = CDK2 CCNE1 (human) (UniProt P24941+P24864)
CDK3 CCNE1 (human) = CDK3 CCNE1 (human) (UniProt Q00526+P24864)
Sequence of CDK3 CCNE1 (human) (P24864 whole entry, looked up): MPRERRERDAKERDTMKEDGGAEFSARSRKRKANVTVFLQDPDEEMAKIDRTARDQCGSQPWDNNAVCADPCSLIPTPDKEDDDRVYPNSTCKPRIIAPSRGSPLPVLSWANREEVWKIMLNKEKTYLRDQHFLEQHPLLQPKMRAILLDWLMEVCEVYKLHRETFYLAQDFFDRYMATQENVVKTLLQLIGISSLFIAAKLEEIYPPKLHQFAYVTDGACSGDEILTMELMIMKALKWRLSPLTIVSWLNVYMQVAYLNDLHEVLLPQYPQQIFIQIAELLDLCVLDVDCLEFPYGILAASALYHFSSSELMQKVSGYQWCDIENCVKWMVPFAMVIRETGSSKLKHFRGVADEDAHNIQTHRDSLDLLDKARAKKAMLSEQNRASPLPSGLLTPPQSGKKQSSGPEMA
Sequence of CDK3 CCNE1 (human) (Q00526 whole entry, looked up): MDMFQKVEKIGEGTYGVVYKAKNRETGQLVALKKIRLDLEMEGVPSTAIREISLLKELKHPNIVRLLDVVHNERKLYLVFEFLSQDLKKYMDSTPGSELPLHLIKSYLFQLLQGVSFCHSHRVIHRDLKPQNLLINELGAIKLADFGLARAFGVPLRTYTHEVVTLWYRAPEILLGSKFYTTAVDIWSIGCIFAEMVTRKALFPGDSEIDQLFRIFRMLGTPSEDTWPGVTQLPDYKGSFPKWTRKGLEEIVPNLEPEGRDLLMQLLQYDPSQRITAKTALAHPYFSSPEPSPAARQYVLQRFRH

CDK4 CCND1 (human) = CDK4 CCND1 (human) (UniProt P24385+P11802)
CDK4 CCND3 (human) = CDK4 CCND3 (human) (UniProt P30281+P11802)
CDK5 CDK5R1 p25 (human) = CDK5 CDK5R1 p25 (human) (UniProt Q00535+Q15078)
CDK5 CDK5R1 p35 (human) = CDK5 CDK5R1 p35 (human) (UniProt Q00535+Q15078)
CDK6 CCND1 (human) = CDK6 CCND1 (human) (UniProt Q00534+P24385)
CDK6 CCND3 (human) = CDK6 CCND3 (human) (UniProt P30281+Q00534)
CDK7 CCNH MNAT1 (human) = CDK7 CCNH MNAT1 (human) (UniProt P50613+P51948+P51946)
CDK9 CCNK (human) = CDK9 CCNK (human) (UniProt O75909+P50750)
CDK9 CCNT1 (human) = CDK9 CCNT1 (human) (UniProt P50750+O60563)
DYRK1B (human) = DYRK1B (human) (UniProt Q9Y463)
Sequence of DYRK1B (human) (Q9Y463 whole entry, looked up): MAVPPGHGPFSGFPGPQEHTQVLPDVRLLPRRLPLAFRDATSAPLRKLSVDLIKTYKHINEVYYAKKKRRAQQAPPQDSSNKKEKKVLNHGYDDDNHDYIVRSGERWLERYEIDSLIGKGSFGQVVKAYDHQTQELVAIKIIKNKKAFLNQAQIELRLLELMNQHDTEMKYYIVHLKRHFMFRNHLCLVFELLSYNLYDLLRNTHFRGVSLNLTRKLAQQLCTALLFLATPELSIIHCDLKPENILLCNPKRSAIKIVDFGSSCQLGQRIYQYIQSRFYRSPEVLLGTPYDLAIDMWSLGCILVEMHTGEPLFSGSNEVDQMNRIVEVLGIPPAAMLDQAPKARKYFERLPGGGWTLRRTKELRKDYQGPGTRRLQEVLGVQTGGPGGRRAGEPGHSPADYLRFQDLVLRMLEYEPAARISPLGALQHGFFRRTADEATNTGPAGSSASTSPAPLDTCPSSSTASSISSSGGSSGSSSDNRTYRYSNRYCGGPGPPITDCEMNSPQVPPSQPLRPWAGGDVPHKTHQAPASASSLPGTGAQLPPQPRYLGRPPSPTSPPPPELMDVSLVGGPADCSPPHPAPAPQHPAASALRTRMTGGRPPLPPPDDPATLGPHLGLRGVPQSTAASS

LTK (human) = LTK (human) (UniProt P29376)
Sequence of LTK (human) (P29376 whole entry, looked up): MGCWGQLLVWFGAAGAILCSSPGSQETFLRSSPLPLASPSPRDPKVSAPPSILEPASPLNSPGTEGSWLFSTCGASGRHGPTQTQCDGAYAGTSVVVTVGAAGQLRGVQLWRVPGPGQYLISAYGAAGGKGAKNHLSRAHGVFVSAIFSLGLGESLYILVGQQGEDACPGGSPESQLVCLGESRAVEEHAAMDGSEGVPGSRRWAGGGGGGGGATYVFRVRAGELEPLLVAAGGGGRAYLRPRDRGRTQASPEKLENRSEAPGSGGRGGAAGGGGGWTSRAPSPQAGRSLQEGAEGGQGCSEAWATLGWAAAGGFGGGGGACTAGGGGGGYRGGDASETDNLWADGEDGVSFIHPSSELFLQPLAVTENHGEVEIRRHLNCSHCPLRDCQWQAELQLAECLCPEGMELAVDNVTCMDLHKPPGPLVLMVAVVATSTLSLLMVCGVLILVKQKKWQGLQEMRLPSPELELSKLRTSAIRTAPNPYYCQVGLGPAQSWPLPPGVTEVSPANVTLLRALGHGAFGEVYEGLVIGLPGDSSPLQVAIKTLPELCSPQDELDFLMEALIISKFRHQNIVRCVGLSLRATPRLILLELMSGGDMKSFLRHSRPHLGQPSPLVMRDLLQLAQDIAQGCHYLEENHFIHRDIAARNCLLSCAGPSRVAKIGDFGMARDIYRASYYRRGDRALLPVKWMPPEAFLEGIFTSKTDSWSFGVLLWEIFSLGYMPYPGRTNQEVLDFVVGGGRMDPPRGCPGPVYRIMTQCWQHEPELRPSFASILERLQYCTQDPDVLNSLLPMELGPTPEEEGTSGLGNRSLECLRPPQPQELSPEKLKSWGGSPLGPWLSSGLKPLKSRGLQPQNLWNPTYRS

MAP3K7 TAB1 (human) = MAP3K7 TAB1 (human) (UniProt O43318+Q15750)
PRKCH (human) = PRKCH (human) (UniProt P24723)
Sequence of PRKCH (human) (P24723 whole entry, looked up): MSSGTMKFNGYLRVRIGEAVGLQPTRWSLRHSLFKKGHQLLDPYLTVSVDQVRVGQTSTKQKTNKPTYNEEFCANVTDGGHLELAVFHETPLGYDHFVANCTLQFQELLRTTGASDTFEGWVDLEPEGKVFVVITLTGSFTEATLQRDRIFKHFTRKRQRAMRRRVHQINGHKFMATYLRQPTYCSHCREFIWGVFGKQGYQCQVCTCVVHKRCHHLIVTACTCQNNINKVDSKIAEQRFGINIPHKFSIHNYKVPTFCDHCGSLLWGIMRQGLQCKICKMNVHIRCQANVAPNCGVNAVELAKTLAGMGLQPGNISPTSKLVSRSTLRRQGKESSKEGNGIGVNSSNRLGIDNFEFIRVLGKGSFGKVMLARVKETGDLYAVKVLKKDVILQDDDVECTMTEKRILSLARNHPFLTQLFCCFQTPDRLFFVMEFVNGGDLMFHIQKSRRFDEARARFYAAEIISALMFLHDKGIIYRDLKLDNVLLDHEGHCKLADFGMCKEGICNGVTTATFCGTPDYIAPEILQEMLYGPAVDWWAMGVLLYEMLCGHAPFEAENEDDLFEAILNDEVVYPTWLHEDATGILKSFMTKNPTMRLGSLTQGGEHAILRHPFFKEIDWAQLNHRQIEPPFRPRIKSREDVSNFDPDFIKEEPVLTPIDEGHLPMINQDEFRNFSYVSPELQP

STK33 (human) = STK33 (human) (UniProt Q9BYT3)
Sequence of STK33 (human) (Q9BYT3 whole entry, looked up): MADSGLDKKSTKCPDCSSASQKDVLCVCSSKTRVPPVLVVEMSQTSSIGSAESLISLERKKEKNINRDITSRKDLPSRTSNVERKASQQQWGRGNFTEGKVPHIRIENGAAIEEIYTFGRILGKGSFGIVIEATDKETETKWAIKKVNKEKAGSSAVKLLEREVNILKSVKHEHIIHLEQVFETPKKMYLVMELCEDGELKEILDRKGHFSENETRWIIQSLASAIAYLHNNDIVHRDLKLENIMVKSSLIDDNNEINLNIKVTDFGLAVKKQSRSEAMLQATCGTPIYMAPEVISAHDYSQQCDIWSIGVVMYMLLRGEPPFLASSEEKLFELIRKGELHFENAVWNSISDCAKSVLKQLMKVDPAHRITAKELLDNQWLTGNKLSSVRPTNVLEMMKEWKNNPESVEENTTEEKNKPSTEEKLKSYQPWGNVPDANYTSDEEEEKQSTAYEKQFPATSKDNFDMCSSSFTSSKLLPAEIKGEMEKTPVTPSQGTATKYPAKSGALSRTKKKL

CSNK1A1 (human) = CSNK1A1 (human) (UniProt P48729)
FYN (human) = FYN (human) (UniProt P06241)

Sequence of CDK2 CCNA2 (human) (P20248 whole entry, looked up, other chains not shown): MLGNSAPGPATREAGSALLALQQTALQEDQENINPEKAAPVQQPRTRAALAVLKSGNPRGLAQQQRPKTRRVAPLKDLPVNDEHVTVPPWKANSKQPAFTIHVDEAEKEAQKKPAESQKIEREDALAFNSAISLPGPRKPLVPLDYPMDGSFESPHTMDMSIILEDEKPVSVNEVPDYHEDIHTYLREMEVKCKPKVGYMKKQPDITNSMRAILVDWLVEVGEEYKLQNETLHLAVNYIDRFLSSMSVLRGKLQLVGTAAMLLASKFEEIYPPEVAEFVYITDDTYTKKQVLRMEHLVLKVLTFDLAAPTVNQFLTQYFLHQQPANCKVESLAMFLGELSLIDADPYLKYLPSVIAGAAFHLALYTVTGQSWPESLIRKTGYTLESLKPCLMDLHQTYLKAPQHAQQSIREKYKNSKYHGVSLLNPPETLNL
Sequence of CDK1 CCNA2 (human) (P06493 whole entry, looked up): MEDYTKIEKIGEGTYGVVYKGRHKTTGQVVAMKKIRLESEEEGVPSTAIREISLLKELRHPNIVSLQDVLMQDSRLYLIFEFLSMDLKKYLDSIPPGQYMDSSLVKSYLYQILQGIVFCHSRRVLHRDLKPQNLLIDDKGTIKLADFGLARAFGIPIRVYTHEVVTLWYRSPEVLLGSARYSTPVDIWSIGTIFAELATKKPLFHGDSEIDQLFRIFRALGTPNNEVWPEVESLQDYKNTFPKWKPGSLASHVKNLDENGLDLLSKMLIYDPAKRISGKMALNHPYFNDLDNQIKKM
Sequence of CDK1 CCNA2 (human) (P20248 whole entry, looked up): as the sequence (P20248 whole entry, looked up, other chains not shown) above
Sequence of CDK1 CCNB1 (human) (P06493 whole entry, looked up): as the sequence (P06493 whole entry, looked up) above
Sequence of CDK1 CCNB1 (human) (P14635 whole entry, looked up): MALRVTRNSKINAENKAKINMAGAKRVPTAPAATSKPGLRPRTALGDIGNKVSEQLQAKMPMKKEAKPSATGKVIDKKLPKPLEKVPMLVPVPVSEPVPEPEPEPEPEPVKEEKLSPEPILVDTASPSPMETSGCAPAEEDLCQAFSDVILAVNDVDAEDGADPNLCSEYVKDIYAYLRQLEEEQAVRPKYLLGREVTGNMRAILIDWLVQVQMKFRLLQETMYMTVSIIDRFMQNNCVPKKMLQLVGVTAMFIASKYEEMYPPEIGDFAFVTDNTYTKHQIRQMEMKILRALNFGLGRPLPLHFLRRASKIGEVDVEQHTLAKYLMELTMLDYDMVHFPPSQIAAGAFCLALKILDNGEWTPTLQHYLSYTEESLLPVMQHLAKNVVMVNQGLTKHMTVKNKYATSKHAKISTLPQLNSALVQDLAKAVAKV
Sequence of CDK2 CCNE1 (human) (P24864 whole entry, looked up, other chains not shown): as the sequence (P24864 whole entry, looked up) above

SMILES	residual activity (CDK1 CCNA2 (human)) [%]	residual activity (CDK1 CCNB1 (human)) [%]	residual activity (CDK2 CCNA2 (human)) [%]	residual activity (CDK2 CCNE1 (human)) [%]	residual activity (CDK3 CCNE1 (human)) [%]	residual activity (CDK4 CCND1 (human)) [%]	residual activity (CDK4 CCND3 (human)) [%]	residual activity (CDK5 CDK5R1 p25 (human)) [%]	residual activity (CDK5 CDK5R1 p35 (human)) [%]	residual activity (CDK6 CCND1 (human)) [%]	residual activity (CDK6 CCND3 (human)) [%]	residual activity (CDK7 CCNH MNAT1 (human)) [%]	residual activity (CDK9 CCNK (human)) [%]	residual activity (CDK9 CCNT1 (human)) [%]	residual activity (DYRK1B (human)) [%]	residual activity (LTK (human)) [%]	residual activity (PRKCH (human)) [%]	residual activity (STK33 (human)) [%]	also measured
c1cc(-c2cnn3cc(-c4ccc(OCCN5CCCCC5)cc4)cnc23)ccn1	92.2	79.3	87.7	77.5	89.9	35.3	60.7	68.2	67.7	21.2	14.8	83.7	36.7	65	26.2	95.4	95	37.4	residual activity (MAP3K7 TAB1 (human)): 49.7%
O=C1c2ccccc2-[n+]2ccc3c([nH]c4ccccc43)c21	68		72.4	80.3	80.1										98.7	121	87.1	101	
NC(=O)Nc1sc(-c2ccc(F)cc2)cc1C(N)=O																	83.5		
Cc1ccc(NC(=O)c2ccc(CN3CCN(C)CC3)cc2)cc1Nc1nccc(-c2cccnc2)n1		103			97.5	97.5	107	98.1	103	99	103	101	103	100	97.9	100			
NC(=O)c1ccc2[nH]c(-c3ccc(Oc4ccc(Cl)cc4)cc3)nc2c1																	93.4		
COc1cc(OC)c(/C=C2\C(=O)Nc3ccccc32)c(OC)c1	103	83	96.3												99	95.3	82.2	89.5	residual activity (CSNK1A1 (human)): 59.6%; residual activity (FYN (human)): 100%
